{"source": "paper PMC10439310", "about": "(Nature microbiology, 2022)", "tested_on": "inosine-5’-monophosphate dehydrogenase (IMPDH, gene: guaB)", "assay_type": "binding, Bacillus anthracis", "conditions": "[32P]-Ap4A, lysates of E. coli overexpressing B. anthracis ORFs"}
{"smiles": "Nc1ncnc2c1ncn2[C@@H]1O[C@H](COP(=O)(O)OP(=O)(O)OP(=O)(O)OP(=O)(O)OC[C@H]2O[C@@H](n3cnc4c(N)ncnc43)[C@H](O)[C@@H]2O)[C@@H](O)[C@H]1O", "note": "[Ap4A, diadenosine 5’,5’’’-P1,P4-tetraphosphate]", "values": [{"measurement": "binding in DRaCALA screen (in words)", "result": "putative Ap4A-binding partner"}]}
